According to US20230365927A1, “COMPOSITION AND METHOD FOR […] NON-NEURONAL CELLS INTO NEURONS” (INSTITUTE OF ZOOLOGY, CHINESE ACADEMY OF SCIENCES, priority 2020, published 2023):

Test system: human foreskin fibroblasts (HFF1y, Beijing Stem Cell Bank)
Test: Transdifferentiation of human foreskin fibroblasts into neurons in vitro (induction culture solution, then mature culture solution)
Assay type: cell-based
Settings: for rank of gene expression level of neuronal markers (MAPT and MAP2) by myosin inhibitor in the culture solutions: induction 7 days, mature solution (with isoxazole) 7 days, Examples 8-12
Method: After removing the fibronectin solution, the human foreskin fibroblasts (HFF1y, Beijing Stem Cell Bank) were evenly inoculated at 2×10^6 cells per vessel, culturing with basal medium (high glucose DMEM (Gibco, C12430500BT) plus 10% fetal bovine serum (Gibco, 16000-044)) for 12 hours. After removing the basal medium, the cells were washed with PBS.
An induction culture solution was added to the HFF1y vessel after undergoing the above treatment to culture for 1-7 days.
After the above induction culture for 1-7 days, a mature culture solution was added to HFF1y to culture for 7-45 days.

[1] = induction solution without Ble 7 days, then mature solution with ISX9 and without Ble 7 days

| SMILES | rank of gene expression level of neuronal markers (MAPT and MAP2) by myosin inhibitor in the culture solutions | RNA-seq, GO cluster analysis of up-regulated genes (induction culture system comprising only Ble, p<0.05) | cell morphology after induction culture solution only (induction solution 25 μM Ble, 1-7 days, no isoxazole) | cell morphology (micrograph) [1] | expressions of canonical neuronal markers (GFAP, TUJ1, MAP2, MAPT, STMN1, NCAM) and synapse-related proteins (NEFH, PSD95, SYN1, SYT) [1] | gene expression of fibroblast marker FSP1 [1] | gene expression of neural transcription factors (ASCL1, BRN2, NEUROD1) [1] |
| --- | --- | --- | --- | --- | --- | --- | --- |
| Cc1ccc2c(c1)C(=O)[C@]1(OC(=O)c3ccccc3)CCN(c3ccccc3)C1=N2 [Ble-OB, (−)-Blebbistatin O-Benzoate] | third | – | – | – | – | – | – |
| Cc1ccc2c(c1)C(=O)[C@]1(O)CCN(c3ccccc3)C1=N2 [Ble, (−)-Blebbistatin] | highest | up-regulated genes in induced cells were enriched in the neuronal fate-related pathways | obvious neuronal morphology, small and round cell bodies, and rich and long synapses | – | – | – | – |
| O=C(NC1CC1)c1cc(-c2cccs2)on1 [ISX9, isoxazole 9] | – | – | – | do not appear neuron-like morphology | significantly up-regulated | significantly down-regulated | up-regulated |
